Where a name gives a salt, the structure may show the parent alone.
Assays:
[1] = tested on: bacterial strains that express the class D cephalosporinase OXA-15; assay: Standard BLI potentiation MIC / synergy MIC assays, strains expressing OXA-15; assay type: cell-based, E. coli; conditions: in combination with a β-lactam; comparator Avibactam (CCC)
Description: (§1) The experimental protocol was performed according to Clinical and Laboratory Standards Institute (CLSI) guidelines with modifications as described below (CLSI guidelines can be derived from the CLSI document M07-A9 published in January 2012: “Methods for Dilution Antimicrobial Susceptibility Tests for Bacteria That Grow Aerobically; Approved Standard-Ninth Edition”).
(§2) To prepare for MIC testing, frozen glycerol stocks of clinical isolates (Klebsiella pneumoniae, Eschericia coli, Enterobacter spp, Citrobacter spp, or Pseudomonas aeruginosa) were used to streak for isolated colonies on rich, non-selective, tryptic soy agar containing 5% sheep's blood (TSAB). Frozen glycerol stocks of laboratory engineered, isogenic E. coli strains, which contain cloned β-lactamase expressing plasmids were used to streak for isolated colonies on rich, selective LB agar supplemented with 25 μg/mL tetracycline to maintain the plasmid. All strains were incubated at 37° C. for 18-24 hrs.
(§3) On the day of testing, primary cultures were started by scraping off 5-10 colonies from the TSAB plates containing clinical strains or the tetracycline supplemented LB plates containing engineered strains. The clinical strain material was suspended in ˜5 mL of cation adjusted Mueller Hinton Broth (CAMHB) in 14 mL culture tubes. The engineered strain material was suspended in CAMHB (supplemented with 25 μg/mL tetracycline) in 14 mL culture tubes. All strains were incubated at 37° C. with aeration (200 rpm) for ˜2 hrs until the optical density at 600 nm (OD600) was >0.1.
(§4) The two compound components of the assay were each diluted in CAMHB and added to the 96-well broth microdilution assay plates. 50 μL of the β-lactam was added to each well of the assay plate in 2-fold dilutions with final concentrations ranging from 128 to 0.13 μg/mL. 25 μL of the BLI compound was added to all wells in the broth microdilution plates at a final concentration of 4 μg/mL. Inoculum cultures were prepared by standardizing the primary cultures to OD600=0.1 and then adding 20 μL of the adjusted primary culture per 1 mL CAMHB for clinical strains or CAMHB (supplemented with tetracycline at 100 μg/mL) for engineered strains, so that the final inoculum density was ˜10^5 colony forming units per milliliter. Diluted inoculum cultures were used to inoculate 25 μl, per well in 96-well broth microdilution assay plates. The final volume of each well was 100 μL and contained a β-lactam at different concentrations, a BLlcompound at 4 μg/mL concentration, the bacterial culture at an OD600 of approximately 0.001 and when necessary tetracycline at 25 μg/mL.
(§5) Plates were incubated for 18-20 hours at 37° C. with aeration (200 rpm). Following incubation, growth was confirmed visually placing plates over a viewing apparatus (stand with a mirror underneath) and then OD600 was measured using a SpectraMax 340PC384 plate reader (Molecular Devices, Sunnyvale, Calif.). Growth was defined as turbidity that could be detected with the naked eye or achieving minimum OD600 of 0.1. MIC values were defined as the lowest concentration producing no visible turbidity.
(§6) The synergy MIC (sMIC) assay determines the concentration of the BLI required to potentiate the activity of a fixed concentration of a β-lactam antibiotic against β-lactamase producing bacterial strains. The experimental protocol was performed according to Clinical and Laboratory Standards Institute (CLSI) guidelines with modifications as described below (CLSI guidelines can be derived from the CLSI document M07-A9 published in January 2012: “Methods for Dilution Antimicrobial Susceptibility Tests for Bacteria That Grow Aerobically; Approved Standard-Ninth Edition”). […]

[2] = tested on: bacterial strains that express KPC β-lactamases; assay: Standard BLI potentiation MIC / synergy MIC assays, strains expressing KPC β-lactamases; assay type: cell-based; conditions: in combination with a β-lactam; comparator Avibactam
Description: as §1, §2, §3, §4, §5, §6

| SMILES | activity against bacterial strains that express the class D cephalosporinase OXA-15, compared with Avibactam [1] | activity and/or spectrum of activity against bacterial strains that express KPC β-lactamases, compared with Avibactam [2] |
| --- | --- | --- |
| O=C1N2C[C@@H](CC[C@H]2c2nnc(C3CC4(CNC4)C3)o2)N1OS(=O)(=O)O [Compound 750, (2S,5R)-2-(5-(2-azaspiro[3.3]heptan-6-yl)-1,3,4-oxadiazol-2-yl)-7-oxo-1,6-diazabicyclo[3.2.1]octan-6-yl hydrogen sulfate] | more active than Avibactam | more active than Avibactam for at least one, bacterial strain that expresses KPC β-lactamase and/or show a better spectrum of activity |
| O=C1N2C[C@@H](CC[C@H]2c2nnc(CCCCNC3CCNCC3)o2)N1OS(=O)(=O)O [Compound 772, (2S,5R)-7-oxo-2-(5-(4-(piperidin-4-ylamino)butyl)-1,3,4-oxadiazol-2-yl)-1,6-diazabicyclo[3.2.1]octan-6-yl hydrogen sulfate] | more active than Avibactam | more active than Avibactam for at least one, bacterial strain that expresses KPC β-lactamase and/or show a better spectrum of activity |
| N=C(N)NC[C@@H](O)c1nnc([C@@H]2CC[C@@H]3CN2C(=O)N3OS(=O)(=O)O)o1 [Compound 731, (2S,5R)-2-(5-((R)-2-guanidino-1-hydroxyethyl)-1,3,4-oxadiazol-2-yl)-7-oxo-1,6-diazabicyclo[3.2.1]octan-6-yl hydrogen sulfate] | more active than Avibactam | more active than Avibactam for at least one, bacterial strain that expresses KPC β-lactamase and/or show a better spectrum of activity |
| N=C(N)NCCc1nnc([C@@H]2CC[C@@H]3CN2C(=O)N3OS(=O)(=O)O)o1 [Compound 705, (2S,5R)-2-(5-(2-guanidinoethyl)-1,3,4-oxadiazol-2-yl)-7-oxo-1,6-diazabicyclo[3.2.1]octan-6-yl hydrogen sulfate] | more active than Avibactam | more active than Avibactam for at least one, bacterial strain that expresses KPC β-lactamase and/or show a better spectrum of activity |
| N=C(N)N1CC(NCc2nnc([C@@H]3CC[C@@H]4CN3C(=O)N4OS(=O)(=O)O)o2)C1 [Compound 746, (2S,5R)-2-(5-(((1-carbamimidoylazetidin-3-yl)amino)methyl)-1,3,4-oxadiazol-2-yl)-7-oxo-1,6-diazabicyclo[3.2.1]octan-6-yl hydrogen sulfate] | more active than Avibactam | more active than Avibactam for at least one, bacterial strain that expresses KPC β-lactamase and/or show a better spectrum of activity |
| N=C(N)NCC1(c2nnc([C@@H]3CC[C@@H]4CN3C(=O)N4OS(=O)(=O)O)o2)CC1 [Compound 723, (2S,5R)-2-(5-(1-(guanidinomethyl)cyclopropyl)-1,3,4-oxadiazol-2-yl)-7-oxo-1,6-diazabicyclo[3.2.1]octan-6-yl hydrogen sulfate] | more active than Avibactam | more active than Avibactam for at least one, bacterial strain that expresses KPC β-lactamase and/or show a better spectrum of activity |
| O=C1N2C[C@@H](CC[C@H]2c2nnc(CCN3CCNCC3)o2)N1OS(=O)(=O)O [Compound 776, (2S,5R)-7-oxo-2-(5-(2-(piperazin-1-ybethyl)-1,3,4-oxadiazol-2-yl)-1,6-diazabicyclo[3.2.1]octan-6-yl hydrogen sulfate] | more active than Avibactam | more active than Avibactam for at least one, bacterial strain that expresses KPC β-lactamase and/or show a better spectrum of activity |
| O=C1N2C[C@@H](CC[C@H]2c2nnc(CCNCCO)o2)N1OS(=O)(=O)O [Compound 736, (2S,5R)-2-(5-(2-((2-hydroxyethyl)amino)ethyl)-1,3,4-oxadiazol-2-yl)-7-oxo-1,6-diazabicyclo[3.2.1]octan-6-yl hydrogen sulfate] | more active than Avibactam | more active than Avibactam for at least one, bacterial strain that expresses KPC β-lactamase and/or show a better spectrum of activity |
| N[C@@H]1CC[C@H](c2nnc([C@@H]3CC[C@@H]4CN3C(=O)N4OS(=O)(=O)O)o2)C1 [Compound 729, (2S,5R)-2-(5-((1S,3R)-3-aminocyclopentyl)-1,3,4-oxadiazol-2-yl)-7-oxo-1,6-diazabicyclo[3.2.1]octan-6-yl hydrogen sulfate] | more active than Avibactam | more active than Avibactam for at least one, bacterial strain that expresses KPC β-lactamase and/or show a better spectrum of activity |
| O=C1N2C[C@@H](CC[C@H]2c2nnc([C@H]3[C@@H]4CNC[C@@H]43)o2)N1OS(=O)(=O)O [Compound 740, (2S,5R)-2-(5-(3-azabicyclo[3.1.0]hexan-6-yl)-1,3,4-oxadiazol-2-yl)-7-oxo-1,6-diazabicyclo[3.2.1]octan-6-yl hydrogen sulfate] | more active than Avibactam | more active than Avibactam for at least one, bacterial strain that expresses KPC β-lactamase and/or show a better spectrum of activity |
| O=C1N2C[C@@H](CC[C@H]2c2nnc(CCCC3CNC3)o2)N1OS(=O)(=O)O [Compound 743, (2S,5R)-2-(5-(3-(azetidin-3-yl)propyl)-1,3,4-oxadiazol-2-yl)-7-oxo-1,6-diazabicyclo[3.2.1]octan-6-yl hydrogen sulfate] | more active than Avibactam | more active than Avibactam for at least one, bacterial strain that expresses KPC β-lactamase and/or show a better spectrum of activity |
| NCCCCc1nnc([C@@H]2CC[C@@H]3CN2C(=O)N3OS(=O)(=O)O)o1 [Compound 735, (2S,5R)-2-(5-(4-aminobutyl)-1,3,4-oxadiazol-2-yl)-7-oxo-1,6-diazabicyclo[3.2.1]octan-6-yl hydrogen sulfate] | more active than Avibactam | more active than Avibactam for at least one, bacterial strain that expresses KPC β-lactamase and/or show a better spectrum of activity |
| NC1CCN(CCc2nnc([C@@H]3CC[C@@H]4CN3C(=O)N4OS(=O)(=O)O)o2)CC1 [Compound 775, (2S,5R)-2-(5-(2-(4-aminopiperidin-1-ybethyl)-1,3,4-oxadiazol-2-yl)-7-oxo-1,6-diazabicyclo[3.2.1]octan-6-yl hydrogen sulfate] | – | more active than Avibactam for at least one, bacterial strain that expresses KPC β-lactamase and/or show a better spectrum of activity |
